Test results taken from patent publication US11542295B2, “Use of 20-hydroxyecdysone and the derivatives thereof in the treatment of myopathies” (BIOPHYTIS, priority 2017, dated 2023).

Key:
Type in all cases: in vivo, mouse
[1] = test system: tibialis anterior muscle of C57BL10 mdx mice; experiment: Maximum absolute isometric strength of the tibialis anterior muscle (in situ); conditions: 50 mg/kg*day, two months of treatment
Method: Twelve-week-old […] gene pool (wild mice referred to as “C57” in the figures) and […] mdx (mouse model of Duchenne muscular dystrophy, referred to as “mdx” in the figures) male mice, produced at Charles Rivers, were used. Two groups of mdx were chronically exposed per os either to BIO101 (number of mice n=9) or to BIO103 (number of mice n=9) at a dose of 50 mg/kg*day. A group of C57 mice (number of mice n=5) and a group of mdx mice (number of mice n=15) received the vehicle, i.e. no treatment. The animals of all of the groups were tested for their functional capacity (exertion tolerance test) after two months of treatment. The exertion tolerance test consists of measuring the maximum distance travelled (in-toto activity; FIGS. 1A and 1B). Furthermore, measurements of the maximum absolute isometric strength of the tibialis anterior muscle (in-situ activity; FIGS. 2A and 2B) were made after two months of treatment. The two-month oral treatment consists of force-feeding for five days a week and in drinking water two days a week. An assessment of in-situ contractility of the tibialis anterior muscle is carried out at the end of the protocol, i.e. after two months of treatment. […] The strength is measured during contractions in response to electrical stimulation (frequency of 75-150 Hz, duration of 500 ms). […] The maximum absolute isometric tetanic strength is measured.

[2] = test system: CTGF (connective tissue growth factor); experiment: Heart mRNA expression of fibrosis marker CTGF (semi-quantitative PCR); conditions: mdx mice, 50 mg/kg*day, two months; p=0,0506
Method: (§1) Twelve-week-old C57BL10 gene pool (wild mice referred to as “C57” in the figures) and C57BL10 mdx (mouse model of Duchenne muscular dystrophy, referred to as “mdx” in the figures) male mice, produced at Charles Rivers, were used. Two groups of mdx were chronically exposed per os either to BIO101 (number of mice n=9) or to BIO103 (number of mice n=9) at a dose of 50 mg/kg*day. A group of C57 mice (number of mice n=5) and a group of mdx mice (number of mice n=15) received the vehicle, i.e. no treatment. The animals of all of the groups were tested for their functional capacity (exertion tolerance test) after two months of treatment. […]
(§2) An assessment of markers of fibrosis and cardiac hypertrophy is carried out at the end of the protocol, i.e. after two months of treatment. […] The extract RNA is quantified by spectrophotometry then the quality thereof is verified and validated with the Experion RNA StdSens Analysis Kit (Bio-Rad). […] Finally, semi-quantitative PCR analysis was carried out using SYBR® Green (Roche), a DNA intercalating agent and a LightCycler® 480 Real Time PCR (Roche) apparatus on 384-well plates. The molecular markers measured are as follows: • CTGF and collagen I: connective tissue growth factor (CTGF) is associated with healing and with many pathological fibrotic processes including DMD (Brigstock 2010; Song Y. 2017). […]

[3] = test system: tibialis anterior muscle of C57BL10 mdx mice; experiment: Histological study of tibialis anterior muscle stained with haematoxylin eosin (lesion profiles); conditions: 50 mg/kg*day, two months, HE staining
Method: (§3) Twelve-week-old C57BL10 gene pool (wild mice referred to as “C57” in the figures) and C57BL10 mdx (mouse model of Duchenne muscular dystrophy, referred to as “mdx” in the figures) male mice, produced at Charles Rivers, were used. Two groups of mdx were chronically exposed per os either to BIO101 (number of mice n=9) or to BIO103 (number of mice n=9) at a dose of 50 mg/kg*day. A group of C57 mice (number of mice n=5) and a group of mdx mice (number of mice n=15) received the vehicle, i.e. no treatment. The animals of all of the groups were tested for their functional capacity (exertion tolerance test) after two months of treatment. The exertion tolerance test consists of measuring the maximum distance travelled (in-toto activity; FIGS. 1A and 1B). Furthermore, measurements of the maximum absolute isometric strength of the tibialis anterior muscle (in-situ activity; FIGS. 2A and 2B) were made after two months of treatment.
An assessment of muscle fibrosis by histological study is carried out on the tibialis anterior muscle (abbreviated as TA). Histological sections (7 μm) are produced and stained either with haematoxylin eosin (HE) or with Sirius Red (SR).
An anatomopathological study of the sections of tibialis anterior muscle stained with HE makes it possible to assess the degree of muscle fibre involvement. Representative images of tibialis anterior muscle sections stained with HE obtained from C57 animals (FIG. 4A), mdx animals (FIG. 4B), mdx animals treated with BIO101 (FIG. 4C) and mdx animals treated with BIO103 (FIG. 4D) are shown. The scale bars correspond to 200 μm. The TA muscles of C57 mice show no muscle lesions (FIG. 4A). The TA muscles of untreated mdx mice show a wide diversity of lesion profiles: moderate anisocytosis with numerous necrotic fibres. […] The A sign indicates the inflammatory foci with which fibrosis is associated. […] Indeed, 67% (6 out of 9 TA muscles) of the muscles treated with BIO103 can be classified in this category.

Col1a1 (collagen 1) = experiment: Heart mRNA expression of fibrosis marker Col1a1 (semi-quantitative PCR); conditions: mdx mice, 50 mg/kg*day, two months
Method: as §1, §2

collagen I = experiment: Collagen I protein expression in gastrocnemius muscle (Western Blot); conditions: 50 mg/kg*day, two months, p<0.01
Method: as §3
Alongside the observations made on the tibialis anterior muscle, an assessment of a marker of muscle fibrosis is carried out on the gastrocnemius muscle. The muscle is dissociated with moderate stirring for 16 h at 4° C. in RIPA lysis buffer. […] Collagen I is detected by Western Blot, detected by chemiluminescence then quantified by densitometry after normalisation with reference to GAPDH detection. […]

| Structure (SMILES) | increase in the maximum absolute isometric strength of the tibialis anterior muscle compared to mdx animals receiving the vehicle [1] | genic expression of CTGF in heart compared to control mdx animals [2] | TA muscles with minor lesion profile [3] [%] | TA muscles with pronounced lesion profile (anisocytosis, dispersed necrotic fibres and variable inflammation) [3] [%] | genic expression of Col1a1 in heart compared to control mdx animals (Col1a1 (collagen 1)) | TA muscles with pronounced lesion profile tending towards atrophy [3] [%] | TA muscles with pronounced lesion profile with a somewhat necrotic tendency [3] [%] | TA muscles with severe lesion profile (large acute necrotic plaques with no regeneration) [3] [%] | protein expression of collagen I in gastrocnemius muscle compared to untreated mdx mice (collagen I) |
| --- | --- | --- | --- | --- | --- | --- | --- | --- | --- |
| CC(C)(O)CC[C@@H](O)[C@](C)(O)[C@H]1CC[C@@]2(O)C3=CC(=O)[C@@H]4C[C@@H](O)[C@@H](O)C[C@]4(C)[C@H]3CC[C@]12C [BIO101, 20-hydroxyecdysone] | +15.3% | prevents | 37.5 | 62.5 | – | – | – | – | – |
| CCSCC(=O)[C@H]1CC[C@@]2(O)C3=CC(=O)[C@@H]4C[C@@H](O)[C@@H](O)C[C@]4(C)C3CC[C@]12C (stereo partly drawn) [BIO103, (2S,3R,5R,10R,13R,14S,17S)-17-(2-ethylsulfanylacetyl)-2,3,14-trihydroxy-10,13-dimethyl-2,3,4,5,9,11,12,15,16,17-decahydro-1H-cyclopenta[a]phenanthren-6-one] | +22.5% | – | 67 | – | tends to prevent | 11 | 11 | 11 | significant decrease |
